Measurements: paper PMC6591397, “Functional Roles of Metabolic Intermediates in Regulating the Human Mitochondrial NAD(P)^+-Dependent Malic Enzyme” (Scientific Reports, 2019)
Where “and” joins values, the source holds several entries; their conditions need not be identical. Equal values may be shown once. Where a name gives a salt, the structure may show the parent alone. Read-outs that look alike come from different tables or passages of the source.

What was measured:
[1] = target: T1, human m-NAD(P)-ME WT (Homo sapiens, UniProt P23368); test: ATP/ADP inhibition of enzyme activity; assay type: biochemical
T1 construct: made in house; host or cells: E. coli BL21 (pRH281 vector, trp promoter)
T1 sequence (P23368 19-584): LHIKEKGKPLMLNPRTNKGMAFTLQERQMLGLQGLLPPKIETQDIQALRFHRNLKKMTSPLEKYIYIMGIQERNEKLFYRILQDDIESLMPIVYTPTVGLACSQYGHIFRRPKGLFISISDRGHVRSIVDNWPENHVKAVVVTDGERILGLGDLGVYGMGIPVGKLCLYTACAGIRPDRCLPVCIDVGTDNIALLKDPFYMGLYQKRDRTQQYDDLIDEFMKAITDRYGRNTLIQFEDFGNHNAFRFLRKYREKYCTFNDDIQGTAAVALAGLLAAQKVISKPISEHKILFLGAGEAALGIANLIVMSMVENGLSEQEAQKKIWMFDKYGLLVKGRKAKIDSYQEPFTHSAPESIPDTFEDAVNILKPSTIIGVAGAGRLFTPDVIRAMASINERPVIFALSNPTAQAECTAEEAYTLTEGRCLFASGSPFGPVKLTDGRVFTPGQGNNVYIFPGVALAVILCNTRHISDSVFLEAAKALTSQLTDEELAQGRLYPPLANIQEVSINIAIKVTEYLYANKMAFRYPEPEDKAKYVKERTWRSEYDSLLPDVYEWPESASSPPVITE
Procedure: (§1) The ME reaction was measured with the production rate of NADH or NADPH via the absorbance at 340 nm. The reaction mixture in a saturated condition included 1 mM NAD(P)^+, 40 mM malate, and 10 mM MgCl2 in 50 mM Tris-HCl (pH 7.4). To determine the Km and kcat values, the concentration of one substrate was varied around its Km values while the concentrations of the other components were fixed at saturated concentrations.
C is the slope of the curve at its midpoint. […] All of the calculations were performed using the Sigma Plot 10.0 software program (Jandel Scientific, San Rafael, CA, USA).

[2] = tested on: lung tumor; design: method as in PMID 24957098; details: in vivo; cited from earlier work
[3] = tested on: human non-small cell lung carcinoma H1299 cancer cells; design: method as in PMID 26008970; details: cited from earlier work
[4] = target: T2, m-NAD(P)-ME (Homo sapiens, UniProt P23368); test: Fumarate titration, activation of enzyme activity; assay type: biochemical; details: WT; 15 mM L-malate, 10 mM MgCl2, 1 mM NAD+, pH 7.4; fumarate 0 to 6 mM
T2 construct: made in house; host or cells: E. coli BL21 (pRH281 vector, trp promoter)
T2 sequence (P23368 19-584): as above
Procedure: as §1
Figure S2. Fumarate activating effect on human m-NAD(P)-ME WT and the exosite mutants.

[5] = target: T2, m-NAD(P)-ME; test: Quaternary structure analysis by native gel electrophoresis; assay type: binding; details: 8 μg enzyme; 0.4 or 2 mM NAD+, 0.5 or 2 mM ATP
Procedure: The native gel was running under 110 Voltage with a running buffer (25 mM Tris-HCl and 192 mM glycine, pH8.3) at 4 °C. After electrophoresis, protein was detected by staining with the Coomassie brilliant blue R-250.
Figure S1. Quaternary structure of m-NAD(P)-ME determined by the native gel electrophoresis. The dimer-tetramer distribution of m-NAD(P)-ME was presented on the 3-12% Bis-Tris Native PAGE (NativePAGE^TM Novex®, Life Technologies).

[6] = target: T2, m-NAD(P)-ME; test: Size distribution analysis by analytical ultracentrifugation: monomer-dimer-tetramer equilibrium with different ligands; assay type: binding; details: NAD+-bound enzyme vs apoenzyme
Procedure: All sedimentation velocity data were globally fitted by a monomer-dimer-tetramer equilibrium model by the software program of SEDPHAT[34]. The parameters protein partial specific volume, solvent density and viscosity were calculated with the [sequence] software program[35].

[7] = tested on: human m-NAD(P)-ME WT and exosite mutants; test: Enzyme kinetic assay (NADH production, absorbance at 340 nm) of WT and exosite mutants; assay type: biochemical; details: for K0.5,malate / Km / kcat: pH 7.4
Procedure: as §1
The cooperativity of malate was determined with the following equation: ν=Vmax×[Malate]^h/K0.5h+[Malate]^h where ν is the initial velocity, Vmax is the maximum rate of the reaction, K0.5 is the substrate concentration at half-maximal velocity, and h is the Hill coefficient, which represents the degree of cooperativity.

[8] = target: human m-NAD(P)-ME WT and the exosite mutants; test: Size distribution analysis by analytical ultracentrifugation of WT and exosite mutants, protein only, with NAD+ or with ATP; assay type: binding; details: PBS
Procedure: Size distribution of the monomer-dimer-tetramer equilibrium of the enzyme was monitored using a Beckman Optima XL-A analytical ultracentrifuge instrument. A protein sample (380 µl) and reference buffer (400 µl) were loaded into a well-assembled cell with a double-sector centerpiece. Experiments were performed with an An-50Ti rotor at 42,000 rpm and 20 °C for 3 to 4 hours. The scans for sedimentation velocity data were monitored by the UV absorbance at 280 nm with a 480 s interval time and a 0.002 cm step size in continuous distribution mode. Using the SEDFIT 9.4c software[31]–[34], the size distribution of the enzyme was analyzed with a resolution corresponding to N = 200 to cover the range of sedimentation coefficient (S) values from approximately 0.1 to 20, a confidence level of p = 0.95, and a best-fit average anhydrous frictional ratio (f/f0). The dissociation constants of monomer-dimer-tetramer self-association model were globally analyzed by using the SEDPHAT software.
All sedimentation velocity data were globally fitted by a monomer-dimer-tetramer equilibrium model by the software program of SEDPHAT[34]. The parameters protein partial specific volume, solvent density and viscosity were calculated with the […] software program.
Figure 4 Continuous sedimentation coefficient distribution of human m-NAD(P)-ME WT and the exosite mutants. The enzyme concentrations were fixed at 1.6, 4.7, and 14.2 μM in PBS. […] (a) ME2_WT; (b) ME2_H154V; (c) ME2_K156A; (d) ME2_G192A; (e) ME2_R194N; (f) ME2_R197E; (g) ME2_R197D.
Figure 5 Continuous sedimentation coefficient distribution of human m-NAD(P)-ME WT and the exosite mutants. The enzyme concentrations were fixed at 1.6, 4.7, and 14.2 μM in PBS. […] (a) ME2_N482G; (b) ME2_N482A; (c) ME2_R542V; (d) ME2_Y552F; (e) ME2_R556Q; (f) ME2_R556V.

[9] = protein only, read-out: Kd,12 monomer-dimer dissociation constant
[10] = protein only, read-out: Kd,24 dimer-tetramer dissociation constant
[11] = read-out: Kd,12(ATP), with 0.5 mM ATP
[12] = read-out: Kd,24(ATP), with 0.5 mM ATP
[13] = with 0.4 mM NAD+, read-out: Kd,12(NAD)
[14] = with 0.4 mM NAD+, read-out: Kd,24(NAD)

Row | Compound | h (Hill coefficient, malate cooperativity) ([7]; (+) with 5 mM fumarate) | h (Hill coefficient, malate cooperativity) ([7]; (−) without fumarate) | Kd [8, 9] | Kd [8, 10] | Kd [8, 11] | Kd [8, 12] | Kd [8, 13] | Kd [8, 14] | K0.5,malate ([7]; (+) with 5 mM fumarate) | Km ([7]; (+) with 5 mM fumarate) | kcat ([7]; (+) with 5 mM fumarate) | K0.5,malate ([7]; (−) without fumarate) | Km ([7]; (−) without fumarate) | kcat ([7]; (−) without fumarate) | further results
1 | Nc1ncnc2c1ncn2[C@@H]1O[C@H](COP(=O)(O)OP(=O)(O)O)[C@@H](O)[C@H]1O [ADP] | – | – | – | – | – | – | – | – | – | – | – | – | – | – | IC50 [1]: 3740 µM and 3700 µM
2 | COC(=O)CC(O)C(=O)OC (stereo not drawn) [DMM, dimethyl-malate] | – | – | – | – | – | – | – | – | – | – | – | – | – | – | effect on lung tumor growth [2]: suppress lung tumor growth in vivo
3 | O=C(O)c1cc2ccccc2c(Cc2c(O)c(C(=O)O)cc3ccccc23)c1O [EA, Embonic acid] | – | – | – | – | – | – | – | – | – | – | – | – | – | – | effect on cell growth [3]: suppresses the cell growth; effect on cellular senescence [3]: induces the cellular senescence
4 | O=C(O)/C=C/C(=O)O [FUM, fumarate] | – | – | – | – | – | – | – | – | – | – | – | – | – | – | maximal activation of the enzyme by fumarate [4]: approximately 2 fold
5 | NC(=O)c1ccc[n+]([C@@H]2O[C@H](COP(=O)([O-])OP(=O)(O)OC[C@H]3O[C@@H](n4cnc5c(N)ncnc54)[C@H](O)[C@@H]3O)[C@@H](O)[C@H]2O)c1 [NAD, NAD^+] | – | – | – | – | – | – | – | – | – | – | – | – | – | – | dimer-tetramer distribution of the enzyme on native gel [5]: most tetrameric forms; Kd,24 lower than that of the apoenzyme [6]: 6 fold

Further lines, with some results ahead:

Row | h (Hill coefficient, malate cooperativity) ([7]; (+) with 5 mM fumarate) | h (Hill coefficient, malate cooperativity) ([7]; (−) without fumarate) | Kd [8, 9] | Kd [8, 10] | Kd [8, 11] | Kd [8, 12] | Kd [8, 13] | Kd [8, 14] | Compound | K0.5,malate ([7]; (+) with 5 mM fumarate) | Km ([7]; (+) with 5 mM fumarate) | kcat ([7]; (+) with 5 mM fumarate) | K0.5,malate ([7]; (−) without fumarate) | Km ([7]; (−) without fumarate) | kcat ([7]; (−) without fumarate) | further results
6 | 1.24 ± 0.10 | 1.65 ± 0.30 | 0.03 ± 0.001 µM | 2.33 ± 0.08 µM | 0.1 ± 0.003 µM | 0.59 ± 0.02 µM | 0.1 ± 0.003 µM | 1.11 ± 0.04 µM | R197E: exosite mutant of human m-NAD(P)-ME | 4.55 ± 0.37 mM | 1110 ± 90 µM | 187.6 ± 5.2 s⁻¹ | 23.37 ± 4.48 mM | 2370 ± 280 µM | 165.2 ± 20.4 s⁻¹ | –
7 | 1.06 ± 0.11 | 1.43 ± 0.09 | 0.01 ± 0.001 µM | 0.44 ± 0.01 µM | 0.02 ± 0.001 µM | 9.87 ± 0.38 µM | 1.87 ± 0.08 µM | 0.21 ± 0.01 µM | R542V: exosite mutant of human m-NAD(P)-ME | 5.89 ± 0.78 mM | 910 ± 180 µM | 239.3 ± 12.6 s⁻¹ | 27.00 ± 3.44 mM | 2180 ± 270 µM | 175.6 ± 14.0 s⁻¹ | –
8 | 1.20 ± 0.07 | 1.71 ± 0.27 | 0.01 ± 0.003 µM | 1.75 ± 0.06 µM | 0.4 ± 0.01 µM | 0.18 ± 0.01 µM | 0.18 ± 0.01 µM | 0.91 ± 0.03 µM | R556Q: exosite mutant of human m-NAD(P)-ME | 4.75 ± 0.31 mM | 690 ± 60 µM | 251.8 ± 5.6 s⁻¹ | 19.01 ± 2.40 mM | 1160 ± 220 µM | 220.5 ± 16.2 s⁻¹ | –
9 | 1.24 ± 0.30 | 2.35 ± 0.47 | 0.13 ± 0.001 µM | 2.3 ± 0.02 µM | 2.03 ± 0.06 µM | 0.18 ± 0.01 µM | 0.6 ± 0.01 µM | 4.07 ± 0.08 µM | R556V: exosite mutant of human m-NAD(P)-ME | 1.87 ± 0.26 mM | 360 ± 20 µM | 204.9 ± 9.5 s⁻¹ | 15.90 ± 1.51 mM | 1080 ± 60 µM | 195.2 ± 12.8 s⁻¹ | –
10 | 1.10 ± 0.09 | 2.41 ± 0.32 | 0.24 ± 0.002 µM | 0.35 ± 0.003 µM | 0.64 ± 0.01 µM | 2.72 ± 0.06 µM | 0.66 ± 0.01 µM | 0.05 ± 0.001 µM | WT: wild-type human mitochondrial NAD(P)+-dependent malic enzyme (ME2), recombinant from E. coli | 2.98 ± 0.21 mM | 390 ± 50 µM | 261.7 ± 6.0 s⁻¹ | 10.67 ± 0.64 mM | 540 ± 60 µM | 252.0 ± 8.2 s⁻¹ | h (Hill coefficient, malate cooperativity) ([7]; (−) without fumarate, listed as Human m-NAD(P)-ME): approximately 2
